In patent publication US20230303552A1, “ARYLSULFONYL DERIVATIVES AND THEIR USE AS MUSCARINIC ACETYLCHOLINE RECEPTOR M5 INHIBITORS” (Vanderbilt University, priority 2020, published 2023):

Biological target: T1, human M5 receptors (hM5) (Homo sapiens, UniProt P08912)
T1 construct: expressed in transfected cells
T1 sequence (P08912 1-532): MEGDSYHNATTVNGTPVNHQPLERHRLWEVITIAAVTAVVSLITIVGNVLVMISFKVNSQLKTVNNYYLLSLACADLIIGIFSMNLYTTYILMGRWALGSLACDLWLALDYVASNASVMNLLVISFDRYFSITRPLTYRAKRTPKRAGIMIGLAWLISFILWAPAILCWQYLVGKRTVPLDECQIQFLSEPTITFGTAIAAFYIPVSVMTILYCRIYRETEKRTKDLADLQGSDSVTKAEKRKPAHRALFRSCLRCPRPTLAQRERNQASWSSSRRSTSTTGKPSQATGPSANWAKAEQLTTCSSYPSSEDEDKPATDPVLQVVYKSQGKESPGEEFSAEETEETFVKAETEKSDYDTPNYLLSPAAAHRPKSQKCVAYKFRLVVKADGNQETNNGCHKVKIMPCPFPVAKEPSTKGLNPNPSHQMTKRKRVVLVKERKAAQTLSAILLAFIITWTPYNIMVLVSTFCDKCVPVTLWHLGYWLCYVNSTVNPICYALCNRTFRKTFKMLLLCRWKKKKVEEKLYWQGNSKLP
Experiment: Cell-based functional calcium mobilization assay of mAChR M5 activity (inhibition of EC80 acetylcholine response) in CHO cells
Conditions: CHO cells stably expressing hM5; for IC50: calcium flux (Fluo-4), EC80 acetylcholine addition; for EC80 MIN: minimum of EC80 acetylcholine response, normalized to maximum acetylcholine response
Summary of the method: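 CHO cells stably expressing human M5, loaded with Fluo-4 AM in HBSS/20 mM HEPES/2.5 mM probenecid pH 7.4. Compound added 140 s before acetylcholine EC20, then EC80 added 125 s later. Calcium flux normalized to maximal acetylcholine response; IC50 from ten-point curves in the EC80 window.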

| Structure (SMILES) | IC50 [µM] | EC80 MIN [%] |
| --- | --- | --- |
| O=C(Nc1ccc2scnc2c1)[C@@H]1CCN(S(=O)(=O)c2ccc3c(c2)CCO3)C1 [Compound 24, (R)-N-(benzo[d]thiazol-5-yl)-1-((2,3-dihydrobenzofuran-5-yl)sulfonyl)pyrrolidine-3-carboxamide] | 0.032 | 2 |
| Cn1cnc2cc(S(=O)(=O)N3CCC(C(=O)Nc4ccc5scnc5c4)CC3)ccc21 [Compound 27, N-(benzo[d]thiazol-5-yl)-1-((1-methyl-1H-benzo[d]imidazol-5-yl)sulfonyl)piperidine-4-carboxamide] | > 10 | 42 |
| Cn1nnc2cc(S(=O)(=O)N3CCC(C(=O)Nc4ccc5scnc5c4)CC3)ccc21 [Compound 28, N-(benzo[d]thiazol-5-yl)-1-((1-methyl-1H-benzo[d][1,2,3]triazol-5-yl)sulfonyl)piperidine-4-carboxamide] | > 10 | 9 |
| O=C(Nc1ccc2scnc2c1)C1CCN(S(=O)(=O)c2ccc3c(c2)OC(F)(F)O3)CC1 [Compound 29, N-(benzo[d]thiazol-5-yl)-1-((2.2-difluorobenzo[d][1,3]dioxol-5-yl)sulfonyl)piperidine-4-carboxamide] | > 10 | 60 |
| O=C(Nc1ccc2scnc2c1)C1CCN(S(=O)(=O)c2cccc(OC(F)(F)F)c2)CC1 [Compound 30, N-(benzo[d]thiazol-5-yl)-1-((3-(trifluoromethoxy)phenyl)sulfonyl)piperidine-4-carboxamide] | > 10 | 57 |
| Cc1cccc(S(=O)(=O)N2CCC(C(=O)Nc3ccc4scnc4c3)CC2)c1 [Compound 31, N-(benzo[d]thiazol-5-yl)-1-(m-tolylsulfonyl)piperidine-4-carboxamide] | 9.16 | 5 |
| O=C(Nc1ccc2scnc2c1)C1CCN(S(=O)(=O)c2ccc(F)c(F)c2)CC1 [Compound 32, N-(benzo[d]thiazol-5-yl)-1-((3,4-difluorophenyl)sulfonyl)pip eridine-4-carboxamide] | 1.93 | 3 |
| Cc1ccccc1S(=O)(=O)N1CCC(C(=O)Nc2ccc3scnc3c2)CC1 [Compound 33, N-(benzo[d]thiazol-5-yl)-1-(o-tolylsulfonyl)piperidine-4-carboxamide] | > 10 | 6 |
| COc1cccc(S(=O)(=O)N2CCC(C(=O)Nc3ccc4scnc4c3)CC2)c1 [Compound 34, N-(benzo[d]thiazol-5-yl)-1-((3-methoxyphenyl)sulfonyl)pi pendine-4-carboxamide] | > 10 | 18 |
| Cc1cc(S(=O)(=O)N2CCC(C(=O)Nc3ccc4scnc4c3)CC2)cnc1Cl [Compound 35, N-(benzo[d]thiazol-5-yl)-1-((6-chloro-5-methylpyridin-3-yl)sulfonyl)piperidine-4-carboxamide] | 0.083 | 3 |
| Cn1ncc2cc(S(=O)(=O)N3CCC(C(=O)Nc4ccc5scnc5c4)CC3)cnc21 [Compound 36, N-(benzo[d]thiazol-5-yl)-1-((1-methyl-1H-pyrazolo[3,4-b]pyridin-5-yl)sulfonyl)piperidine-4-carboxamide] | > 10 | 40 |
| Cc1noc2ncc(S(=O)(=O)N3CCC(C(=O)Nc4ccc5scnc5c4)CC3)cc12 [Compound 37, N-(benzo[d]thiazol-5-yl)-1-((3-methylisoxazolo[5,4-b]pyridin-5-yl)sulfonyl)piperidine-4-carboxamide] | > 10 | 60 |
| O=C(Nc1ccc2scnc2c1)[C@@H]1CCN(S(=O)(=O)c2cccnc2)C1 [Compound 39, (R)-N-(benzo[d]thiazol-5-yl)-1-(pyridin-3-ylsulfonyl)pyrrolidine-3-carboxamide] | > 10 | 27 |
| O=C(Nc1ccc2scnc2c1)C1CCN(S(=O)(=O)c2cc3c(cc2F)OCC3)CC1 [Compound 41, N-(benzo[d]thiazol-5-yl)-1-((6-fluoro-2,3-dihydrobenzofuran-5-yl)sulfonyl)piperidine-4-carboxamide] | 0.046 | 2 |
| O=C(Nc1ccc2scnc2c1)[C@@H]1CCN(S(=O)(=O)c2cc3c(cc2F)OCC3)C1 [Compound 42, (R)-N-(benz[d]thiazol-5-yl)-1-((6-fluoro-2,3-dihydrobenzofuran-5-yl)sulfonyl)pyrrolidine-3-carboxamide] | 0.039 | 2 |
| O=C(Nc1ccc2scnc2c1)C1CCN(S(=O)(=O)c2cccc3ncccc23)CC1 [Compound 46, N-(benzo[d]thiazol-5-yl)-1-(quinolin-5-ylsulfonyl)piperidine-4-carboxamide] | > 10 | 37 |

| Structure (SMILES) | IC50 [µM] | EC80 MIN [%] |
| --- | --- | --- |
| Cc1nc2ccc(S(=O)(=O)N3CCC(C(=O)Nc4ccc5scnc5c4)CC3)cc2s1 [Compound 47] | > 10 | 47 |
| O=C(Nc1ccc2scnc2c1)C1CCN(S(=O)(=O)c2ccc3c(c2)OCCO3)CC1 [Compound 48, N-(benzo[d]thiazol-5-yl)-1-((2.3-dihydrobenzo[b][1,4]dioxin-6-yl)sulfonyl)piperidine-4-carboxamide] | 1.79 | 5 |
| Cc1cc2c(cc1S(=O)(=O)N1CCC(C(=O)Nc3ccc4scnc4c3)CC1)OCO2 [Compound 49, N-(benzo[d]thiazol-5-yl)-1-((6-methylbenzo[d][1,3]dioxol-5-yl)sulfonyl)pipcridinc-4-carboxamide] | > 10 | 8 |
| O=C(Nc1ccc2scnc2c1)C1CCN(S(=O)(=O)c2ccc3c(c2)CCCO3)CC1 [Compound 50, N-(benzo[d]thiazol-5-yl)-1-(chroman-6-ylsulfonyl)pipcridinc-4-carboxamide] | 1.85 | 4 |
| N#Cc1cccc(S(=O)(=O)N2CCC(C(=O)Nc3ccc4scnc4c3)CC2)c1 [Compound 51, N-(benzo[d]thiazol-5-yl)-1-((3-cyanophenyl)sulfonyl)piperi dine4-carboxamide] | 3.53 | 38 |
| COc1ccccc1S(=O)(=O)N1CCC(C(=O)Nc2ccc3scnc3c2)CC1 [Compound 52, N-(benzo[d]thiazol-5-yl)-1-((2-methoxyphenyl)sulfonyl)pi peridine-4-carboxamide] | > 10 | 24 |
| O=C(Nc1ccc2scnc2c1)C1CCN(S(=O)(=O)c2ccccc2OC(F)(F)F)CC1 [Compound 53, N-(benzo[d]thiazol-5-yl)-1-((2-(trifluoromethoxy)phenyl)sulfonyl)piperidine-4-carboxamide] | 4.11 | 4 |
| O=C(Nc1ccc2scnc2c1)C1CCN(S(=O)(=O)c2cccc(C(F)(F)F)c2)CC1 [Compound 54, N-(benzo[d]thiazol-5-yl)-1-((3-(trifluoromethyl)phenyl)sulfonyl)piperidine-4-carboxamide] | > 10 | 51 |
| O=C(Nc1ccc2scnc2c1)[C@H]1CCN(S(=O)(=O)c2ccc3c(c2)CCO3)C1 [Compound 55, (S)-N-(benzo[d]thiazol-5-yl)-1-((2,3-dihydrobenzofuran-5-yl)sulfonyl)pyrrolidine-3-carboxamide] | 0.361 | 3 |
| O=C(Nc1ccc2scnc2c1)[C@H]1CCN(S(=O)(=O)c2cc3c(cc2F)OCC3)C1 [Compound 56, (S)-N-(benzo[d]thiazol-5-yl)-1-((6-fluoro-2.3-dihydrobenzofuran-5-yl)sulfonyl)pyrrolidine-3-carboxamide] | 0.719 | 2 |
| O=C(Nc1ccc2scnc2c1)C1CCN(S(=O)(=O)c2ccc3c(c2Br)CCO3)CC1 [Compound 57, N-(benzo[d]thiazol-5-yl)-1-((4-bromo-2,3-dihydrobenzofuran-5-yl)sulfonyl)piperidine-4-carboxamide] | 0.333 | 2 |
| O=C(Nc1ccc2scnc2c1)C1CCN(S(=O)(=O)c2ccc(Br)c3c2OCC3)CC1 [Compound 58, N-(benzo[d]thiazol-5-yl)-1-((4-bromo-2,3-dihydrobenzofuran-7-yl)sulfonyl)piperidine-4-carboxamide] | > 10 | 34 |
| O=C(Nc1ccc2scnc2c1)[C@@H]1CCN(S(=O)(=O)c2ccc3c(c2Br)CCO3)C1 [Compound 59, (R)-N-(benzo[d]thiazol-5-yl)-1-((4-bromo-2,3-dihydrobenzofuran-5-yl)sulfonyl)pyrrolidine-3-carboxamide] | 0.487 | 2 |
| O=C(Nc1ccc2scnc2c1)[C@@H]1CCN(S(=O)(=O)c2ccc(Br)c3c2OCC3)C1 [Compound 60, (R)-N-(benzo[d]thiazol-5-yl)-1-((4-bromo-2,3-dihydrobenzofuran-7-yl)sulfonyl)pyrrolidine-3-carboxamide] | > 10 | 31 |
| O=C(Nc1ccc2scnc2c1)C1CCN(S(=O)(=O)c2c(Cl)ccc3nonc23)CC1 [Compound 61, N-(benzo[d]thiazol-5-yl)-1-((5-chlorobenzo[c][1,2,5]oxadiazol-4-yl)sulfonyl)piperidine-4-carboxamide] | > 10 | 60 |
